Source: the supplement of paper PMC4862054

Experiments:
HCC1937 [1] = settings: 72 h
Summary of the method: (§1)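 Breast cancer cell lines in 20 µl suspension were seeded onto 384-well plates that already held compound dissolved in 5 µl medium and were incubated for 72 h. Viability was measured by adding 2.5 µl CellTiter-Blue for 2 h at 37 °C and reading fluorescence at 560/590 nm. Each plate was normalised to vehicle and a positive kill control and checked by Z'-factor. EC50 was taken from a fitted percent-inhibition dose-response curve, censored at the highest concentration, and rows with a drug sensitivity score of zero were removed.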

CAL-120 [2] = settings: 72 h
Summary of the method: as §1

BT-549 [3] = settings: 72 h
Summary of the method: as §1

MDA-MB-436 [4] = settings: 72 h
Summary of the method: as §1

SK-BR-3 [5] = settings: 72 h
Summary of the method: as §1

MDA-MB-468 = assay: drug sensitivity score (DSS), CellTiter-Blue viability (DSS (AUC-based score)); higher = stronger viability inhibition; extreme values may be limits of the assay; settings: incubation time: 72 h
Summary of the method: (§2)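 Into 384-well plates carrying compound in a 5- or 9-concentration series went 20 µl of breast cancer cell suspension, followed by 72 h of incubation. Adding 2.5 µl CellTiter-Blue per well and incubating 2 h at 37 °C preceded fluorescence measurement at 560/590 nm. After normalisation of each plate to 0.1 % DMSO and a positive kill control, dose-response curves were fitted and the area beneath them taken as the drug sensitivity score.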

CAL-51 = assay: as above; settings: incubation time: 72 h
Summary of the method: as §2

HCC1937 [6] = assay: as above; settings: incubation time: 72 h
Summary of the method: as §2

CAL-85-1 = assay: as above; settings: incubation time: 72 h
Summary of the method: as §2

CAL-120 [7] = assay: as above; settings: incubation time: 72 h
Summary of the method: as §2

DU-4475 = assay: as above; settings: incubation time: 72 h
Summary of the method: as §2

HCC1599 = assay: as above; settings: incubation time: 72 h
Summary of the method: as §2

BT-549 [8] = assay: as above; settings: incubation time: 72 h
Summary of the method: as §2

HCC1143 = assay: as above; settings: incubation time: 72 h
Summary of the method: as §2

MDA-MB-453 = assay: as above; settings: incubation time: 72 h
Summary of the method: as §2

BT-474 = assay: as above; settings: incubation time: 72 h
Summary of the method: as §2

MDA-MB-231 = assay: as above; settings: incubation time: 72 h
Summary of the method: as §2

Hs578T = assay: as above; settings: incubation time: 72 h
Summary of the method: as §2

MFM-223 = assay: as above; settings: incubation time: 72 h
Summary of the method: as §2

MDA-MB-436 [9] = assay: as above; settings: incubation time: 72 h
Summary of the method: as §2

SK-BR-3 [10] = assay: as above; settings: incubation time: 72 h
Summary of the method: as §2

CAL-148 = assay: as above; settings: incubation time: 72 h
Summary of the method: as §2

Row | SMILES | EC50, CellTiter-Blue viability (HCC1937 [1]) [nM] | EC50, CellTiter-Blue viability (CAL-120 [2]) [nM] | EC50, CellTiter-Blue viability (BT-549 [3]) [nM] | EC50, CellTiter-Blue viability (MDA-MB-436 [4]) [nM] | EC50, CellTiter-Blue viability (SK-BR-3 [5]) [nM] | drug sensitivity score (MDA-MB-468) | drug sensitivity score (CAL-51) | drug sensitivity score (HCC1937 [6]) | drug sensitivity score (CAL-85-1) | drug sensitivity score (CAL-120 [7]) | drug sensitivity score (DU-4475) | drug sensitivity score (HCC1599) | drug sensitivity score (BT-549 [8]) | drug sensitivity score (HCC1143) | drug sensitivity score (MDA-MB-453) | drug sensitivity score (BT-474) | drug sensitivity score (MDA-MB-231) | drug sensitivity score (Hs578T) | drug sensitivity score (MFM-223) | drug sensitivity score (MDA-MB-436 [9]) | drug sensitivity score (SK-BR-3 [10]) | drug sensitivity score (CAL-148)
1 | CN1CCC(COc2cnc(-c3cccc(Cn4nc(-c5cccc(C#N)c5)ccc4=O)c3)nc2)CC1 | 3980 | 4950 | 2770 | 3530 | 2470 | 5.78 | 3.38 | 4.45 | 3.23 | 3.44 | 2.66 | 0 | 6.21 | 0 | 4.88 | 3.92 | 5.87 | 0 | 2.41 | 5.04 | 6.8 | 2.07
2 | CN(C)C/C=C/C(=O)Nc1cc2c(Nc3ccc(F)c(Cl)c3)ncnc2cc1O[C@H]1CCOC1 [Afatinib] | 1910 | 836 | 2700 | 5410 | 7.53 | 13 | 1.9 | 7.41 | 13.1 | 4.96 | 0 | 0 | 5.88 | 0 | 21.3 | 23.5 | 7.75 | 4.14 | 3.47 | 3.02 | 31.5 | 5.66
3 | CN1CC[C@H](c2c(O)cc(O)c3c(=O)cc(-c4ccccc4Cl)oc23)[C@H](O)C1 [Alvocidib] | 133 | 98.2 | 298 | 330 | 79.7 | 17.6 | 19.9 | 19.1 | 20.8 | 17.8 | 22.4 | 17.4 | 17.2 | 17.9 | 19.6 | 14.5 | 19.6 | 22.8 | 19.2 | 15.6 | 23.9 | 20.3
4 | Nc1nc(Cl)nc2c1ncn2[C@H]1C[C@H](O)[C@@H](CO)O1 [Cladribine] | 73.4 | 923 | 839 | 799 | 884 | 0 | 0.39 | 8.9 | 0 | 3.94 | 1.23 | 0 | 3.51 | 3.82 | 0 | 0 | 7.23 | 0 | 0 | 1.7 | 1.21 | 0.812
5 | Nc1ccn([C@@H]2O[C@H](CO)[C@@H](O)[C@@H]2O)c(=O)n1 [Cytarabine] | 117 | 246 | 12.8 | 156 | 487 | 6.23 | 15.4 | 13.9 | 3.04 | 7.69 | 12.3 | 3 | 7.65 | 6.95 | 6.62 | 0 | 7.18 | 11.6 | 0 | 4.91 | 8.27 | 19.2
6 | Cc1c2oc3c(C)ccc(C(=O)N[C@@H]4C(=O)N[C@H](C(C)C)C(=O)N5CCC[C@H]5C(=O)N(C)CC(=O)N(C)[C@@H](C(C)C)C(=O)O[C@@H]4C)c3nc-2c(C(=O)N[C@@H]2C(=O)N[C@H](C(C)C)C(=O)N3CCC[C@H]3C(=O)N(C)CC(=O)N(C)[C@@H](C(C)C)C(=O)O[C@@H]2C)c(N)c1=O [Dactinomycin] | 2.17 | 1.09 | 1.27 | 6.66 | 2.91 | 31.4 | 29.7 | 21.8 | 30.9 | 30.8 | 38.4 | 20.8 | 32.8 | 27.4 | 30.5 | 17.7 | 30.8 | 33.6 | 20.1 | 27.9 | 28.9 | 34.1
7 | COc1cccc2c1C(=O)c1c(O)c3c(c(O)c1C2=O)C[C@@](O)(C(=O)CO)C[C@@H]3O[C@H]1C[C@H](N)[C@H](O)[C@H](C)O1 [Doxorubicin] | 55.1 | 96.4 | 196 | 190 | 49.4 | 9.27 | 8.73 | 11.8 | 5.11 | 11.3 | 12.9 | 3.59 | 7.93 | 8.86 | 4.31 | 4.12 | 9.57 | 9.11 | 2.94 | 8.25 | 13.3 | 14.2
8 | COc1cc(Nc2ncc3c(n2)-c2ccc(Cl)cc2C(c2c(F)cccc2OC)=NC3)ccc1C(=O)O [MLN8237] | 24.6 | 593 | 918 | 145 | 14.9 | 15.8 | 18.1 | 17.8 | 11.9 | 10.7 | 22.9 | 2.39 | 8.32 | 10.4 | 16.6 | 4.4 | 10.4 | 14.7 | 9.51 | 6.09 | 16.7 | 15
9 | S=c1[nH]cnc2nc[nH]c12 [Mercaptopurine] | 1550 | 9910 | – | – | – | 5.53 | 0.87 | 4.84 | 0 | 4.1 | 0 | 0 | 0 | 0 | 0 | 0 | 0 | 0 | 0 | 0 | 0 | 0
10 | COc1cccc2cc(-c3nc([C@H]4CC[C@H](C(=O)O)CC4)n4ncnc(N)c34)[nH]c12 [OSI-027] | 771 | 1800 | 2580 | 370 | 73.4 | 6.33 | 9.33 | 8.55 | 9.36 | 8.32 | 6.08 | 5.99 | 6.62 | 7.21 | 13.7 | 9.76 | 6.73 | 9.33 | 15.2 | 13.1 | 21.7 | 9.33
11 | N#CC[C@H](C1CCCC1)n1cc(-c2ncnc3[nH]ccc23)cn1 [Ruxolitinib] | 1650 | – | – | – | – | 0 | 0 | 1.92 | 0 | 0 | 0 | 0 | 0 | 0 | 0 | 0 | 0 | 0 | 0 | 0 | 0 | 0
12 | C=CCNC1=C2C[C@@H](C)C[C@H](OC)[C@H](O)[C@@H](C)/C=C(\C)[C@H](OC(N)=O)[C@@H](OC)/C=C\C=C(/C)C(=O)NC(=CC1=O)C2=O [Tanespimycin] | 100 | 218 | 20.9 | 25.2 | 15.7 | 0 | 16.9 | 18.2 | 15.7 | 14.8 | 28.2 | 16.3 | 24.3 | 24.8 | 32.6 | 21.3 | 9.87 | 20.5 | 25.8 | 25.2 | 29.2 | 22.4
13 | CO[C@H]1C[C@@H]2CC[C@@H](C)[C@@](O)(O2)C(=O)C(=O)N2CCCC[C@H]2C(=O)O[C@H]([C@H](C)C[C@@H]2CC[C@@H](OC(=O)C(C)(CO)CO)[C@H](OC)C2)CC(=O)[C@H](C)/C=C(\C)[C@@H](O)[C@@H](OC)C(=O)[C@H](C)C[C@H](C)/C=C/C=C/C=C/1C [Temsirolimus] | – | 1.07 | 0.18 | 5.05 | 0.92 | 13.1 | 22.2 | 0 | 14.7 | 16.4 | 15.7 | 0 | 18.1 | 11.1 | 31.8 | 12.1 | 0 | 17.3 | 20.8 | 5.67 | 17.9 | 25.6
14 | CC[C@]1(O)C[C@@H]2CN(CCc3c([nH]c4ccccc34)[C@@](C(=O)OC)(c3cc4c(cc3OC)N(C)[C@H]3[C@@](O)(C(=O)OC)[C@H](OC(C)=O)[C@]5(CC)C=CCN6CC[C@]43[C@@H]65)C2)C1 [Vinblastine] | 0.67 | 0.3 | 3.04 | 5.02 | 0.3 | 21.6 | 16.1 | 32 | 17.8 | 32 | 13.7 | 7.99 | 25.2 | 19.4 | 20 | 21.8 | 27.7 | 30.7 | 13.1 | 18.7 | 35.2 | 18.7
15 | CS(=O)(=O)c1ccc(C(=O)Nc2ccc(Cl)c(-c3ccccn3)c2)c(Cl)c1 [Vismodegib] | 3920 | – | – | 58.8 | – | 0 | 0 | 1.01 | 0 | 0 | 0 | 0 | 0 | 0 | 0 | 0 | 0 | 0 | 0 | 4.6 | 0 | 0
